Key:
Type in all cases: cell-based
c-Myc protein = target: T1, c-Myc protein (Homo sapiens, UniProt P01106); assay: c-Myc protein degradation in HL60 cells (Western blot); settings: for remaining activity at 0.01 µM: HL-60, compound at 10 nM, 24 h, gray value relative to Ctrl (DMSO), read-out: Remaining amount of c-Myc protein (@10 nM/Ctrl)
T1 construct: degradation of myc and GSPT1 proteins in HL60 cells; endogenous in cells; host or cells: HL60
Method: (§1) HL60 cells in the exponential growth phase were digested and plated into a 6-well plate at 1×10^6 cells per well. The cell culture medium was RPMI-1640 (meilunbio, MA0215). After a day of adherent growth of the cells, the compound of the present invention was added as a test drug for culture, and proteins were extracted 24 h later (Ctrl meant adding only DMSO at the same volume).
(§2) In the 6-well plate, the culture medium RPMI-1640 (meilunbio, MA0215) was removed, and the cells were washed once with PBS, digested with trypsin, and centrifuged and collected separately into 1.5 mL centrifuge tubes. 100 μL of RIPA lysis buffer (containing 100 μM PMSF) was added to each tube, mixed thoroughly, allowed to stand on ice for 30 min and then centrifuged at 12000 rpm at 4° C. using a centrifuge for 20 min. The supernatant was used for Western blotting experiments. The sample can be stored at −80° C.
(§3) By using the BCA protein concentration determination kit (from Thermo Fisher, Cat. No. 23225), the BSA standard determination solution and the samples to be tested (the samples to be tested can be diluted and then tested) were prepared according to the table A below. Samples were added to the 96-well plate. Each well was supplemented with PBS to 20 μL, and then 200 μL of BCA working solution (prepared according to the kit) was added respectively and mixed evenly. The plate was placed at 60° C. for 10 min, and then the absorbance at 562 nm was detected. After the reading was recorded, a standard curve was plotted using concentration gradients of the standards, and the absorbance of the samples was substituted to calculate the protein concentration of the samples.
(§4) • 2.1 Protein denaturation: RIPA protein buffer (purchased from Solarbio, Cat. No. R0010) and 5× Loading Buffer (SDS, glycerin, bromophenol blue, TRIS) (purchased from Solarbio, Cat. No. P1040) were added, and the protein samples were denatured at 100° C. for 5 min. • 2.2 Sample loading and electrophoresis: 10% precast gel and the corresponding electrophoresis buffer were used. The same mass of protein sample and protein ladder (purchased from thermo, Cat. No. 26617) were loaded into each well, and electrophoresis at 200 V was performed for 30 min. • 2.3 […]: The gel was excised to remove the excess part. Transferring to PVDF membrane was performed by the wet transfer method (before use, it was necessary to activate the PVDF membrane with methanol for 1 min) at 300 mA for 2 h, during which a lot of heat was generated, and thus cooling with an ice box was required. • 2.4 Blocking: After the transferring, the PVDF membrane was placed in 5% skim milk and blocked with shaking at room temperature for 1 h. • 2.5 Incubating with primary antibody: The PVDF membrane was cut according to the molecular weight indicated on the marker and placed in c-myc (purchased from abcam, Cat. No. ab32072), or GSPT1 (purchased from abcam, Cat. No. ab234433), or CK1α (purchased from abcam, Cat. No. ab206652), or IKZF2 (purchased from proteintech, Cat. No. 13554-1-AP), and GAPDH (purchased from CST, Cat. No. #97166) primary antibodies. The antibodies were diluted with TBST buffer (a solution prepared from TRIS, KCL and NaCl and adjusted to pH 7.4 with hydrochloric acid, and Tween 20 was added) at a ratio of 1:1000, and blocked overnight on a shaker at 4° C. • 2.6 Incubating with secondary antibody: The PVDF membrane incubated with the primary antibody was washed with TBST for 3 times, each time for 10 min. After washing, the membrane was placed in the secondary antibody of the corresponding species, and incubated at room temperature in a shaker for 2 h. • 2.7 Washing membrane and exposure: After incubated with the secondary antibodies, the membrane was washed 3 times with TBST on a shaker, 10 minutes each time. […]

HL60 cells = assay: Anti-proliferation on HL60 cells (CellTiter-Glo, 3 days); settings: Homo sapiens, HL-60, 72 h, 3 days incubation, CTG luminescence, IC50 by XLfit, read-out: HL60 cells Proliferation inhibitory activity
Outline: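 Log-phase cells were plated at 20000 cells/well and treated with compound dilutions in RPMI-1640 for 3 days, with 0.1% DMSO controls. Proliferation was read by CellTiter-Glo luminescence. IC50 was fitted from the inhibition rates.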

GSPT1 protein = target: T2, GSPT1 protein (Homo sapiens, UniProt P15170); assay: GSPT1 protein degradation in HL60 cells (Western blot); settings: for remaining GSPT1 protein at 0.01 µM: HL-60, compound at 10 nM, 24 h, gray value relative to Ctrl (DMSO), read-out: Remaining amount of GSPT1 protein (@10 nM/Ctrl); for Degradation of GSPT1 protein in HL60 cells (FIG. 1, in words): FIG. 1, concentration not stated
T2 construct: degradation of myc and GSPT1 proteins in HL60 cells; endogenous in cells; host or cells: HL60
Method: as §1, §2, §3, §4

CK1α protein = target: T3, CK1α protein (Homo sapiens, UniProt P48729); assay: CK1α protein degradation (Western blot); settings: compound at 10 nM, 24 h, gray value relative to Ctrl (DMSO)
T3 construct: endogenous in cells; host or cells: HL60
Method: as §1, §2, §3
(§5) • 2.1 Protein denaturation: RIPA protein buffer (purchased from Solarbio, Cat. No. R0010) and 5× Loading Buffer (SDS, glycerin, bromophenol blue, TRIS) (purchased from Solarbio, Cat. No. P1040) were added, and the protein samples were denatured at 100° C. for 5 min. • 2.2 Sample loading and electrophoresis: 10% precast gel and the corresponding electrophoresis buffer were used. […]

IKZF2 protein = target: T4, IKZF2 protein (Homo sapiens, UniProt Q9UKS7); assay: IKZF2 protein degradation (Western blot); settings: compound at 10 nM, 24 h, gray value relative to Ctrl (DMSO)
T4 construct: endogenous in cells; host or cells: HL60
Method: as §1, §2, §3, §5

T1 sequence (P01106 whole entry): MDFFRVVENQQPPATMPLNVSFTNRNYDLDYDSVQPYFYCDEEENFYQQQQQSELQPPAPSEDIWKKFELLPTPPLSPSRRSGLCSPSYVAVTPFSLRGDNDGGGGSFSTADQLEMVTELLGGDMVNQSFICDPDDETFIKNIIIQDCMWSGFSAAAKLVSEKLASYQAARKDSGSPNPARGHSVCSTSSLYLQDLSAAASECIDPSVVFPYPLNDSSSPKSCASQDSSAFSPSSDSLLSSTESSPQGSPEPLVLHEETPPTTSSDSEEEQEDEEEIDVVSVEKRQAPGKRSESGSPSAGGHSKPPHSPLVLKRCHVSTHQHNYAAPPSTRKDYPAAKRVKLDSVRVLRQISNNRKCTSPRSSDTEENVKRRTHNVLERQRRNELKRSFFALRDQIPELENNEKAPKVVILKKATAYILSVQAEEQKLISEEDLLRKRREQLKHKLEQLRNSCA
T4 sequence (Q9UKS7 whole entry): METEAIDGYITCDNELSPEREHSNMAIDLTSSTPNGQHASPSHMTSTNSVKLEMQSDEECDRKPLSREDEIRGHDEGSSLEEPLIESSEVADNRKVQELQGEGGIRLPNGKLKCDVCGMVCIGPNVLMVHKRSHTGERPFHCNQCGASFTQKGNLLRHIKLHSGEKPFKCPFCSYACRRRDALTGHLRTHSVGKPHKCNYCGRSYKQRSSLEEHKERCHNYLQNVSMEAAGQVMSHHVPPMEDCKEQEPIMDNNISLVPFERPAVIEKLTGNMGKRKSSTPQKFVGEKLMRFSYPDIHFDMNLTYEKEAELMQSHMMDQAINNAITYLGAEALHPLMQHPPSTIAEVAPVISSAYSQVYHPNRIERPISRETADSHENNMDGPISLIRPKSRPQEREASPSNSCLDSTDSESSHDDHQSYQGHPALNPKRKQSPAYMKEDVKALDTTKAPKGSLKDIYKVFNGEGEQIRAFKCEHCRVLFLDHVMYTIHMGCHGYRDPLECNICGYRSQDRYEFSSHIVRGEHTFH
T2 sequence (P15170 whole entry): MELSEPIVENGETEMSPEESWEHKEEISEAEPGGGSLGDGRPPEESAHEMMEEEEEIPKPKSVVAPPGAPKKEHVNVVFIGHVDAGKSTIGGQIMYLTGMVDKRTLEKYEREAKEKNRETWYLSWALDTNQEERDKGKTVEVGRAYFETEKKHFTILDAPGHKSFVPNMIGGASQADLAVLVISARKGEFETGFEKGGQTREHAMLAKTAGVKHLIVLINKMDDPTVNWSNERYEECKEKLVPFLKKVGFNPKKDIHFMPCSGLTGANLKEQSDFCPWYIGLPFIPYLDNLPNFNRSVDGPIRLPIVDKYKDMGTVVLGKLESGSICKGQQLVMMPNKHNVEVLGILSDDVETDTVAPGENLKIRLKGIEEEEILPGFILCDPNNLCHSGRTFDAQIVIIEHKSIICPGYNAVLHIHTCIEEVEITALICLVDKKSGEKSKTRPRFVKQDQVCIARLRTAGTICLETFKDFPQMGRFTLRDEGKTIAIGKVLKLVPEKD
T3 sequence (P48729 whole entry): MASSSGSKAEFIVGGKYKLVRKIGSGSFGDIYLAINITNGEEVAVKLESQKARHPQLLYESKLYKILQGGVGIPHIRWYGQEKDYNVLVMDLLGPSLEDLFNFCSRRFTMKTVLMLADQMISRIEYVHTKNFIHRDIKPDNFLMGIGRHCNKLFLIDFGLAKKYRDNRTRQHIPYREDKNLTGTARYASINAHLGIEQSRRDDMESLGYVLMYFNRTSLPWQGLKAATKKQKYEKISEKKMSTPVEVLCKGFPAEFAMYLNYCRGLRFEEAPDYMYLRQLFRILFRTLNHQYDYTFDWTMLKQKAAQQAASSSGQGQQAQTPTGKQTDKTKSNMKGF

SMILES	remaining activity at 0.01 µM (c-Myc protein) [%]	IC50 (HL60 cells) [nM]	remaining GSPT1 protein at 0.01 µM (GSPT1 protein) [%]	other results
O=C1CCC(N2Cc3cc(CNCC4(F)CCN(c5ncc(-c6cccc(Cl)c6)cc5C(F)(F)F)CC4)ccc3C2=O)C(=O)N1 (stereo not drawn) [Compound A83]	4	1.2	0	–
Cc1cccc(-c2cnc(N3CCC(CNCc4ccc5c(c4)CN(C4CCC(=O)NC4=O)C5=O)CC3)nc2)c1 (stereo not drawn) [Compound A68]	0	< 0.2	0	–
O=C1CCC(N2Cc3cc(CNCC4CCN(c5ccc(-c6cccc(Cl)c6)cn5)CC4)ccc3C2=O)C(=O)N1 (stereo not drawn) [Compound A70]	216	< 0.2	23	–
O=C1CCC(N2Cc3cc(CNC(=O)C(F)(F)c4ccc(Cl)cc4)ccc3C2=O)C(=O)N1 (stereo not drawn) [CC-90009, reference compound]	–	–	–	Degradation of c-Myc protein in HL60 cells at 10 nM (FIG. 1, in words) (c-Myc protein): no ability to degrade c-Myc protein; Remaining amount of CK1α protein (@10 nM/Ctrl) (CK1α protein): 78%; Remaining amount of IKZF2 protein (@10 nM/Ctrl) (IKZF2 protein): 85%
O=C1CCC(N2Cc3cc(CNCC4CCN(c5ncc(-c6ccccc6F)cc5F)CC4)ccc3C2=O)C(=O)N1 (stereo not drawn) [Compound A107]	46	9.1	1	–
O=C1CCC(N2Cc3cc(CNCC4CCN(c5ncc(-c6cccc(Cl)c6)cc5C(F)(F)F)CC4)c(F)cc3C2=O)C(=O)N1 (stereo not drawn) [Compound A140]	95	17.1	47	–
O=C1CCC(N2Cc3cc(CNCC4CCN(c5ncc(-c6cccc(Cl)c6)cc5F)CC4)ccc3C2=O)C(=O)N1 (stereo not drawn) [Compound A73]	0	< 0.2	0	–
O=C1CCC(N2Cc3cc(CNCC4CCN(c5ncc(-c6cccc(F)c6)cc5C(F)(F)F)CC4)ccc3C2=O)C(=O)N1 (stereo not drawn) [Compound A93]	12	1.6	0	–
O=C1CCC(N2Cc3cc(CNCC4CCN(c5ncc(-c6cccc7ccccc67)cn5)CC4)ccc3C2=O)C(=O)N1 (stereo not drawn) [Compound A62]	17	2	16	Remaining amount of CK1α protein (@10 nM/Ctrl) (CK1α protein): 27%; Remaining amount of IKZF2 protein (@10 nM/Ctrl) (IKZF2 protein): 45%; Degradation of GSPT1 protein in HL60 cells (FIG. 1, in words) (GSPT1 protein): significantly degrade GSPT1 protein
O=C1CCC(N2Cc3cc(CNCC4CCN(c5ncc(-c6cccc(Cl)c6)cc5C(F)(F)F)CC4)ccc3C2=O)C(=O)N1 (stereo not drawn) [Compound A80]	0	< 0.2	3	Degradation of c-Myc protein in HL60 cells at 10 nM (FIG. 1, in words) (c-Myc protein): completely degrade both GSPT1 and c-Myc; Remaining amount of CK1α protein (@10 nM/Ctrl) (CK1α protein): 5%; Remaining amount of IKZF2 protein (@10 nM/Ctrl) (IKZF2 protein): 17%; Degradation of GSPT1 protein in HL60 cells at 10 nM (FIG. 1, in words) (GSPT1 protein; 10 nM): completely degrade both GSPT1 and c-Myc; Degradation of GSPT1 protein in HL60 cells (FIG. 1, in words) (GSPT1 protein): significantly degrade GSPT1 protein
O=C1CCC(N2Cc3cc(CNCC4CCN(c5cnc(-c6cccc7ccccc67)nc5)CC4)ccc3C2=O)C(=O)N1 (stereo not drawn) [Compound A64]	0	10	5	–
CC(NCc1ccc2c(c1)CN(C1CCC(=O)NC1=O)C2=O)C1CCN(c2ncc(-c3cccc(Cl)c3)cc2F)CC1 (stereo not drawn) [Compound A105]	333	55	7	–
N#Cc1cc(CNCC2CCN(c3ncc(-c4cccc(Cl)c4)cc3C(F)(F)F)CC2)ccc1C(=O)NC1CCC(=O)NC1=O (stereo not drawn) [Compound A162]	–	231	–	Degradation of c-Myc protein in HL60 cells at 300 nM (FIG. 2, FIG. 3, in words) (c-Myc protein; 300 nM): simultaneously degrade both GSPT1 and c-Myc proteins; Degradation of GSPT1 protein in HL60 cells at 100 nM (FIG. 3, in words) (GSPT1 protein; 100 nM): significantly degrade GSPT1 protein; Degradation of GSPT1 protein in HL60 cells at 300 nM (FIG. 2, FIG. 3, in words) (GSPT1 protein; 300 nM): simultaneously degrade both GSPT1 and c-Myc proteins
O=C1CCC(N2Cc3cc(CNCC4CCN(c5ncc(-c6cccc(Cl)c6)cc5Cl)CC4)ccc3C2=O)C(=O)N1 (stereo not drawn) [Compound A75]	0	< 0.2	0	–
COc1cc(-c2cccc(Cl)c2)cnc1N1CCC(CNCc2ccc3c(c2)CN(C2CCC(=O)NC2=O)C3=O)CC1 (stereo not drawn) [Compound A77]	50	< 0.2	2	–
